Measurements: patent US10538555B2, “Macrocyclic inhibitors of the PD-1/PD-L1 and CD80(B7-1)/PD-L1 protein/protein interactions” (BRISTOL-MYERS SQUIBB COMPANY, priority 2014, dated 2020)
pIC50: −log10 of the molar value. Where a SMILES comes first, the peptide text is derived from it. Bridges are numbered along the chain shown (N, C = ends). [ ]: non-standard residue; d: D form. Phe(3,4,5-F3) = N[C@@H](Cc1cc(F)c(F)c(F)c1)C(=O)O; Bta = N[C@@H](Cc1csc2ccccc12)C(=O)O; NMeF = CN[C@@H](Cc1ccccc1)C(=O)O; NMeNle = CCCC[C@H](NC)C(=O)O; dPip = O=C(O)[C@H]1CCCCN1; dThz = O=C(O)[C@H]1CSCN1; Abu = CC[C@H](N)C(=O)O; Sar = CNCC(=O)O

Each compound was assayed against T1, Human PD-L1/PD-1 (Homo sapiens, UniProt Q9NZQ7) (assay: HTRF Human PD-L1/PD-1 binding assay (PD-1-Ig/PD-L1-His)). Conditions: PD-L1-His 10 nM, PD-1-Ig 20 nM; class symbol; read-out: HTRF Human PD-L1/PD-1 Binding Assay IC50 Range.
T1 construct: TVMV protease cleavage site (C); made in house; host or cells: HEK293T cells
In short: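 HTRF competition using HEK293T-expressed human PD-1(25-167)-Ig at 20 nM and PD-L1(18-239)-His at 10 nM, compound incubated first with PD-L1 for 15 min, then with PD-1 for 15 min. Signal read as 665/620 nm ratio 30 min after adding Eu anti-Ig and APC anti-His antibodies.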

T1 sequence (Q9NZQ7 with tags, fused parts or gaps): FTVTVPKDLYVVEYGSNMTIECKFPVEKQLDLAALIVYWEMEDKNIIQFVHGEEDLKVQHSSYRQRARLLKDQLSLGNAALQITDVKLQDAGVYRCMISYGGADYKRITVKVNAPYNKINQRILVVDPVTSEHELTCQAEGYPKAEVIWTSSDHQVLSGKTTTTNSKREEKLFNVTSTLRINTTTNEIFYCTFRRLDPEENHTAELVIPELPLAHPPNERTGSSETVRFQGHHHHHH

Row | Structure (SMILES) | pIC50
1 | CCCC[C@H]1C(=O)N2CCC[C@@H]2C(=O)N[C@@H](CO)C(=O)N[C@@H](CC)C(=O)N(C)[C@@H](Cc2ccccc2)C(=O)N[C@@H](Cc2ccc(O)cc2)C(=O)N2CCCC[C@@H]2C(=O)N[C@@H](Cc2c[nH]c3ccccc23)C(=O)N[C@@H](Cc2ccc(O)cc2)C(=O)N[C@@H](CC(C)C)C(=O)N[C@H](C(=O)NCC(N)=O)CSCC(=O)N[C@@H](Cc2ccccc2)C(=O)N(C)[C@@H](Cc2ccccc2)C(=O)N1C [Example 10060] ({CH2CO}-F[NMeF][NMeNle][dP]S[Abu][NMeF]Y[dPip]WYLCG-NH2; thioether N-13) | 7.00 to 8.00
2 | CCCC[C@H]1C(=O)N2CCC[C@@H]2C(=O)N[C@@H](CO)C(=O)N[C@@H](C(C)C)C(=O)N(C)[C@@H](Cc2ccccc2)C(=O)N[C@@H](Cc2ccc(O)cc2)C(=O)N(C)CC(=O)N[C@@H](Cc2csc3ccccc23)C(=O)N[C@@H](Cc2ccc(O)cc2)C(=O)N[C@@H](CC(C)C)C(=O)N[C@H](C(=O)NCC(N)=O)CSCC(=O)N[C@@H](Cc2ccccc2)C(=O)N(C)[C@@H](Cc2ccccc2)C(=O)N1C [Example 10063] ({CH2CO}-F[NMeF][NMeNle][dP]SV[NMeF]Y[Sar][Bta]YLCG-NH2; thioether N-13) | 7.00 to 8.00
3 | CCCC[C@H]1C(=O)N2CCC[C@@H]2C(=O)N[C@@H](CO)C(=O)N[C@@H](C(C)C)C(=O)N(C)[C@@H](Cc2ccccc2)C(=O)N[C@@H](Cc2ccc(O)cc2)C(=O)N2CCCC[C@@H]2C(=O)N[C@@H](Cc2c[nH]c3ccccc23)C(=O)N[C@@H](Cc2ccc(O)cc2)C(=O)N[C@@H](CC(C)C)C(=O)N[C@H](C(=O)NCC(N)=O)CSCC(=O)N[C@@H](Cc2ccccc2)C(=O)N(C)[C@@H](Cc2ccccc2)C(=O)N1C [Example 10064] ({CH2CO}-F[NMeF][NMeNle][dP]SV[NMeF]Y[dPip]WYLCG-NH2; thioether N-13) | 7.00 to 8.00
4 | CCCC[C@H]1C(=O)N(C)CC(=O)N[C@@H](CO)C(=O)N[C@@H](C(C)C)C(=O)N(C)[C@@H](Cc2ccccc2)C(=O)N[C@@H](Cc2ccc(O)cc2)C(=O)N2CCCC[C@@H]2C(=O)N[C@@H](Cc2c[nH]c3ccccc23)C(=O)N[C@@H](Cc2ccc(O)cc2)C(=O)N[C@@H](CC(C)C)C(=O)N[C@H](C(=O)NCC(N)=O)CSCC(=O)N[C@@H](Cc2ccccc2)C(=O)N(C)[C@@H](Cc2ccccc2)C(=O)N1C [Example 10065] ({CH2CO}-F[NMeF][NMeNle][Sar]SV[NMeF]Y[dPip]WYLCG-NH2; thioether N-13) | 7.00 to 8.00
5 | CCCC[C@H]1C(=O)N2CCC[C@@H]2C(=O)N[C@@H](CO)C(=O)N[C@@H](C(C)C)C(=O)N(C)[C@@H](Cc2ccccc2)C(=O)N[C@@H](Cc2ccc(O)cc2)C(=O)N2CCC[C@@H]2C(=O)N[C@@H](Cc2c[nH]c3ccccc23)C(=O)N[C@@H](Cc2ccc(O)cc2)C(=O)N[C@@H](CC(C)C)C(=O)N[C@H](C(=O)NCC(N)=O)CSCC(=O)N[C@@H](Cc2cc(F)c(F)c(F)c2)C(=O)N(C)[C@@H](Cc2ccccc2)C(=O)N1C [Example 10066] ({CH2CO}-[Phe(3,4,5-F3)][NMeF][NMeNle][dP]SV[NMeF]Y[dP]WYLCG-NH2; thioether N-13) | 8.00 to 9.00
6 | CCCC[C@H]1C(=O)N2CCC[C@@H]2C(=O)N[C@@H](CO)C(=O)N[C@@H](C(C)C)C(=O)N(C)[C@@H](Cc2ccccc2)C(=O)N[C@@H](Cc2ccc(O)cc2)C(=O)N2CCC[C@@H]2C(=O)N[C@@H](Cc2c[nH]c3ccccc23)C(=O)N[C@@H](Cc2ccc(O)cc2)C(=O)N[C@@H](CC(C)C)C(=O)N[C@H](C(=O)NCC(N)=O)CSCC(=O)N[C@@H](Cc2ccccc2)C(=O)N(C)[C@@H](Cc2ccccc2)C(=O)N1C [Example 10067] ({CH2CO}-F[NMeF][NMeNle][dP]SV[NMeF]Y[dP]WYLCG-NH2; thioether N-13) | 8.00 to 9.00
7 | CCCC[C@H]1C(=O)N2CCC[C@@H]2C(=O)N[C@@H](CC(=O)O)C(=O)N[C@@H](C(C)C)C(=O)N(C)[C@@H](Cc2ccccc2)C(=O)N[C@@H](Cc2ccc(O)cc2)C(=O)N2CSC[C@@H]2C(=O)N[C@@H](Cc2c[nH]c3ccccc23)C(=O)N[C@@H](Cc2ccc(O)cc2)C(=O)N[C@@H](CC(C)C)C(=O)N[C@H](C(=O)NCC(N)=O)CSCC(=O)N[C@@H](Cc2ccccc2)C(=O)N(C)[C@@H](Cc2ccccc2)C(=O)N1C [Example 10068] ({CH2CO}-F[NMeF][NMeNle][dP]DV[NMeF]Y[dThz]WYLCG-NH2; thioether N-13) | 8.00 to 9.00

Second part, the compound after the results:

Row | pIC50 | Structure (SMILES)
8 | 7.00 to 8.00 | CCCC[C@H]1C(=O)N2CCC[C@@H]2C(=O)N[C@@H](CO)C(=O)N[C@@H](CC)C(=O)N(C)[C@@H](Cc2ccccc2)C(=O)N[C@@H](Cc2ccc(O)cc2)C(=O)N(C)CC(=O)N[C@@H](Cc2c[nH]c3ccccc23)C(=O)N[C@@H](Cc2ccc(O)cc2)C(=O)N[C@@H](CC(C)C)C(=O)N[C@H](C(=O)NCC(N)=O)CSCC(=O)N[C@@H](Cc2ccccc2)C(=O)N(C)[C@@H](Cc2ccccc2)C(=O)N1C [Example 10058] ({CH2CO}-F[NMeF][NMeNle][dP]S[Abu][NMeF]Y[Sar]WYLCG-NH2; thioether N-13)
9 | 7.00 to 8.00 | CCCC[C@H]1C(=O)N2CCC[C@@H]2C(=O)N[C@@H](CO)C(=O)N[C@@H](CC)C(=O)N(C)[C@@H](Cc2ccccc2)C(=O)N[C@@H](Cc2ccc(O)cc2)C(=O)N(C)CC(=O)N[C@@H](Cc2csc3ccccc23)C(=O)N[C@@H](Cc2ccc(O)cc2)C(=O)N[C@@H](CC(C)C)C(=O)N[C@H](C(=O)NCC(N)=O)CSCC(=O)N[C@@H](Cc2ccccc2)C(=O)N(C)[C@@H](Cc2ccccc2)C(=O)N1C [Example 10059] ({CH2CO}-F[NMeF][NMeNle][dP]S[Abu][NMeF]Y[Sar][Bta]YLCG-NH2; thioether N-13)
10 | 7.00 to 8.00 | CCCC[C@H]1C(=O)N(C)CC(=O)N[C@@H](CO)C(=O)N[C@@H](CC)C(=O)N(C)[C@@H](Cc2ccccc2)C(=O)N[C@@H](Cc2ccc(O)cc2)C(=O)N2CCCC[C@@H]2C(=O)N[C@@H](Cc2c[nH]c3ccccc23)C(=O)N[C@@H](Cc2ccc(O)cc2)C(=O)N[C@@H](CC(C)C)C(=O)N[C@H](C(=O)NCC(N)=O)CSCC(=O)N[C@@H](Cc2ccccc2)C(=O)N(C)[C@@H](Cc2ccccc2)C(=O)N1C [Example 10061] ({CH2CO}-F[NMeF][NMeNle][Sar]S[Abu][NMeF]Y[dPip]WYLCG-NH2; thioether N-13)
11 | 7.00 to 8.00 | CCCC[C@H]1C(=O)N2CCC[C@@H]2C(=O)N[C@@H](CO)C(=O)N[C@@H](C(C)C)C(=O)N(C)[C@@H](Cc2ccccc2)C(=O)N[C@@H](Cc2ccc(O)cc2)C(=O)N(C)CC(=O)N[C@@H](Cc2c[nH]c3ccccc23)C(=O)N[C@@H](Cc2ccc(O)cc2)C(=O)N[C@@H](CC(C)C)C(=O)N[C@H](C(=O)NCC(N)=O)CSCC(=O)N[C@@H](Cc2ccccc2)C(=O)N(C)[C@@H](Cc2ccccc2)C(=O)N1C [Example 10062] ({CH2CO}-F[NMeF][NMeNle][dP]SV[NMeF]Y[Sar]WYLCG-NH2; thioether N-13)

Same assay, conditions: PD-L1-His 10 nM, PD-1-Ig 20 nM; read-out: HTRF Human PD-L1/PD-1 Binding Assay IC50

Row | Structure (SMILES) | pIC50
12 | CCCC[C@H]1C(=O)N(C)CC(=O)N[C@@H](CO)C(=O)N[C@@H](C)C(=O)N(C)[C@@H](Cc2ccccc2)C(=O)N[C@@H](Cc2ccc(O)cc2)C(=O)N2CCCC[C@@H]2C(=O)N[C@@H](Cc2c[nH]c3ccccc23)C(=O)N[C@@H](Cc2ccc(O)cc2)C(=O)N[C@@H](CC(C)C)C(=O)N[C@H](C(=O)NCC(N)=O)CSCC(=O)N[C@@H](Cc2ccccc2)C(=O)N(C)[C@@H](Cc2ccccc2)C(=O)N1C [Example 10057] ({CH2CO}-F[NMeF][NMeNle][Sar]SA[NMeF]Y[dPip]WYLCG-NH2; thioether N-13) | 6.67
